In patent US7754743B2, “Heteroarylcarbamoylbenzene derivatives” (Banyu Pharmaceutical Co., Ltd., priority 2003, dated 2010) one finds Emax and EC50 data, which are given here for two molecules.

The target in this test is T1, recombinant human liver GK (Homo sapiens, UniProt P35557).
T1 construct: made in house; host or cells: E. coli
T1 sequence (P35557 1-466 isoform P35557-2): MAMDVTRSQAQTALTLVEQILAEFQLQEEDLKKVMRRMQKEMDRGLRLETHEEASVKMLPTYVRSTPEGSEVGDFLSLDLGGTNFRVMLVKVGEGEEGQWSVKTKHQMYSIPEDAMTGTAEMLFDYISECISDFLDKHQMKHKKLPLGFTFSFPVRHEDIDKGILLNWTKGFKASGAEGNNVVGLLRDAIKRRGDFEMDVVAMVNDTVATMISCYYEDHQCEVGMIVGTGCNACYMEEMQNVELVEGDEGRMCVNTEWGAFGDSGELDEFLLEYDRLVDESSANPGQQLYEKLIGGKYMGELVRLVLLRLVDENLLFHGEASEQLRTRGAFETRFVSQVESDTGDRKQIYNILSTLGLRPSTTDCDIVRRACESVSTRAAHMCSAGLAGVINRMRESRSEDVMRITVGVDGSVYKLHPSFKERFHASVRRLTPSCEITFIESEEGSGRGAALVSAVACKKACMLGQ
In words: Glucokinase (GK) activation assay, G6PDH-coupled thio-NADH absorbance at 405 nm. It counts as biochemical. As for the experimental part: The glucokinase activity is the degree of activation of glucokinase, as determined not by direct measurement of glucose-6-phosphate, but by measurement of the amount of thio-NADH produced upon production of phosphogluconolactone from glucose-6-phosphate by the reporter enzyme glucose-6-phosphate dehydrogenase.
The recombinant human liver GK used in this assay was expressed in E. coli as FLAG fusion protein, and it was purified by […] M2 AFFINITY GEL (Sigma).
The assay was carried out using a flat-bottomed 96-well plate at 30° C. A 69 μl portion of assay buffer (25 mM Hepes Buffer: pH=7.2, 2 mM MgCl2, 1 mM ATP, 0.5 mM TNAD, 1 mM dithiothreitol) was dispensed, and either a DMSO solution of the compound or 1 μl of DMSO as a control was added. Next, 20 μl of an enzyme mixture (FLAG-GK, 20 U/ml G6PDH) precooled in ice bath was dispensed, and then 10 μl of 25 mM glucose was added as substrate and reaction was initiated (final glucose concentration=2.5 mM).
FLAG-GK was added to produce an absorbance increment of from 0.05 to 0.1 after 5 minutes in the presence of 1% DMSO.
The OD values were measured at each concentration of the evaluated compound, using the OD value of the DMSO control as 100%. The Emax (%) and EC50 (μM) values were calculated from the OD value at each concentration, and used as indices of the GK activating power of the compounds.

Setting [1] is: final glucose concentration 2.5 mM, 30° C.

In general, Emax refers to the greatest response seen or fitted, relative to the assay's reference. One may read the EC50 as the midpoint of the concentration-response curve.

Each structure is given as a SMILES string. Read-outs that look alike come from different tables or passages of the source.

Regarding `Cc1csc(NC(=O)c2cc(Oc3ccc(S(C)(=O)=O)cc3)cc(OC(C)C)c2)n1` [Production Example 1, 5-isopropoxy-3-(4-methanesulfonylphenoxy)-N-(4-methylthiazol-2-yl)-benzamide], the maximum response (Emax) worked out at 957%. For the same molecule, under setting [1], the concentration for a half-maximal effect (EC50) was 0.25 µM.

As for `COC(=O)NCc1ccc(Oc2cc(OC(C)C)cc(C(=O)Nc3nccs3)c2)cc1` [Production Example 59, 5-isopropoxy-3-(4-methoxycarbonylaminomethylphenoxy)-N-thiazol-2-yl-benzamide], the Emax (OD value of DMSO control as 100%, final glucose concentration 2.5 mM, 30° C., read-out: Emax(%)) was 936%. Moreover, the EC50 under setting [1] came to 0.53 µM.
